In PubChem BioAssay AID463226 (The Scripps Research Institute Molecular Screening Center, 2010):
Active and inactive are the calls of the source. No rule for the calls is given here.

Target: Serine/threonine-protein phosphatase PP1-beta catalytic subunit (Homo sapiens) (UniProt P62140)
Test: PubChem AID 463226
Settings: purified PP1, 33P-phosphohistone dephosphorylation, scintillation

Sequence of Serine/threonine-protein phosphatase PP1-beta catalytic subunit (Homo sapiens) (P62140 whole entry, looked up): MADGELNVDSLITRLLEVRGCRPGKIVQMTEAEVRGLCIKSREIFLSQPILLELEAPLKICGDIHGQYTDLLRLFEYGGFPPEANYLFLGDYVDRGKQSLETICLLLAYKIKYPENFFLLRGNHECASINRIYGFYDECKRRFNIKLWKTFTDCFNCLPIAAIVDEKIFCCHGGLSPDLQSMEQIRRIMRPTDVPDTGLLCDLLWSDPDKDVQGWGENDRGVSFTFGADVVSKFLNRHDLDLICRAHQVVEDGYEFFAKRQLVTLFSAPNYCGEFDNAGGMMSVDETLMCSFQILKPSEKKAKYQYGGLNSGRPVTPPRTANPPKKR

`O=C(O)c1n[nH]nc1-c1ccccc1` was tested, and the IC50 was “inactive”.

Work on `O=C(O)C1C2CCC(O2)C1C(=O)NC1CCCCC1` (configuration not stated) yielded an IC50 of 23.2 µM.
